ChEMBL document CHEMBL1201861, “Genomics of Drug Sensitity in Cancer screening data, Wellcome Trust Sanger Institute”

Columns and labels:
Assay in all cases: cells
[1] = system: TE-8; assay type: functional, cell-based, Homo sapiens; details: Homo sapiens, TE-8;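 note: growth inhibition of TE-8 cells, measured with a cell viability readout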
Description: SANGER: Inhibition of human TE-8 cell growth in a cell viability assay.

[2] = system: no-11; assay type: functional, cell-based, Homo sapiens; details: Homo sapiens;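 note: growth inhibition of human NO-11 cells, read out with a cell viability assay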
Description: SANGER: Inhibition of human no-11 cell growth in a cell viability assay.

[3] = system: Lu-65; assay type: functional, cell-based, Homo sapiens; details: Homo sapiens, Lu-65;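 note: growth inhibition of Lu-65 cancer cells, read out by a cell viability assay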
Description: SANGER: Inhibition of human LU-65 cell growth in a cell viability assay.

[4] = system: LXF-289 cell line; assay type: functional, cell-based; details: Homo sapiens
Description: SANGER: Inhibition of human LXF-289 cell growth in a cell viability assay.

[5] = system: SK-UT-1; assay type: functional, cell-based, Homo sapiens; details: Homo sapiens, SK-UT-1;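 note: growth inhibition of SK-UT-1 cells, measured by a cell viability assay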
Description: SANGER: Inhibition of human SK-UT-1 cell growth in a cell viability assay.

[6] = system: GT3TKB; assay type: functional, cell-based, Homo sapiens; details: Homo sapiens, GT3TKB;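 note: growth inhibition of the cell line, read out with a cell viability assay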
Description: SANGER: Inhibition of human GT3TKB cell growth in a cell viability assay.

[7] = system: NB10; assay type: functional, cell-based, Homo sapiens; details: Homo sapiens, NB10;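 note: growth inhibition of NB10 cells, read out by a cell viability assay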
Description: SANGER: Inhibition of human NB10 cell growth in a cell viability assay.

[8] = system: ATN-1; assay type: functional, cell-based, Homo sapiens; details: Homo sapiens, ATN-1;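 note: growth inhibition of human ATN-1 cells, read out with a cell viability assay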
Description: SANGER: Inhibition of human ATN-1 cell growth in a cell viability assay.

[9] = system: RPMI-8226; assay type: functional, cell-based, Homo sapiens; details: Homo sapiens, RPMI-8226
Description: SANGER: Inhibition of human RPMI-8226 cell growth in a cell viability assay.

[10] = system: ONS-76; assay type: functional, cell-based, Homo sapiens; details: Homo sapiens, ONS-76;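 note: growth inhibition of human ONS-76 cells, read out with a cell viability assay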
Description: SANGER: Inhibition of human ONS-76 cell growth in a cell viability assay.

[11] = system: KM-H2; assay type: functional, cell-based, Homo sapiens; details: Homo sapiens, KM-H2;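 note: growth inhibition of KM-H2 cells, read out by a cell viability assay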
Description: SANGER: Inhibition of human KM-H2 cell growth in a cell viability assay.

[12] = system: KS-1; assay type: functional, cell-based; details: Homo sapiens;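 note: growth inhibition of KS-1 cells, read out with a cell viability assay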
Description: SANGER: Inhibition of human KS-1 cell growth in a cell viability assay.

[13] = system: SCH; assay type: functional, cell-based, Homo sapiens; details: Homo sapiens, SCH;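 note: growth inhibition of human SCH cells, read out in a cell viability assay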
Description: SANGER: Inhibition of human SCH cell growth in a cell viability assay.

[14] = system: CTB-1; assay type: functional, cell-based, Homo sapiens; details: Homo sapiens, CTB-1
Description: SANGER: Inhibition of human CTB-1 cell growth in a cell viability assay.

[15] = system: EW-16; assay type: functional, cell-based, Homo sapiens; details: Homo sapiens, EW-16;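 note: growth inhibition of human EW-16 cells, read out as cell viability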
Description: SANGER: Inhibition of human EW-16 cell growth in a cell viability assay.

[16] = system: GI-ME-N; assay type: functional, cell-based, Homo sapiens; details: Homo sapiens, GI-ME-N;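 note: growth inhibition of human GI-ME-N cells, read out with a cell viability assay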
Description: SANGER: Inhibition of human GI-ME-N cell growth in a cell viability assay.

[17] = system: NCI-H1838; assay type: functional, cell-based, Homo sapiens; details: Homo sapiens, NCI-H1838;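 note: growth inhibition of NCI-H1838 cells, determined with a cell viability readout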
Description: SANGER: Inhibition of human NCI-H1838 cell growth in a cell viability assay.

[18] = system: NCI-H1092; assay type: functional, cell-based, Homo sapiens; details: Homo sapiens, NCI-H1092;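 note: cell growth inhibition measured with a cell viability assay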
Description: SANGER: Inhibition of human NCI-H1092 cell growth in a cell viability assay.

[19] = system: MOLT-16; assay type: functional, cell-based, Homo sapiens; details: Homo sapiens, MOLT-16;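 note: growth inhibition of human MOLT-16 cells, read out with a cell viability assay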
Description: SANGER: Inhibition of human MOLT-16 cell growth in a cell viability assay.

[20] = system: COLO-800; assay type: functional, cell-based, Homo sapiens; details: Homo sapiens, COLO-800;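 note: growth inhibition of COLO-800 cells, read out with a cell viability assay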
Description: SANGER: Inhibition of human COLO-800 cell growth in a cell viability assay.

[21] = system: KALS-1; assay type: functional, cell-based, Homo sapiens; details: Homo sapiens, KALS-1; read-out: IC50;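 note: growth inhibition of KALS-1 cells, determined with a cell viability assay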
Description: SANGER: Inhibition of human KALS-1 cell growth in a cell viability assay.

[22] = system: GOTO; assay type: functional, cell-based, Homo sapiens; details: Homo sapiens, GOTO;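 note: growth inhibition of GOTO cells, read out by a cell viability assay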
Description: SANGER: Inhibition of human GOTO cell growth in a cell viability assay.

[23] = system: IST-SL1; assay type: functional, cell-based, Homo sapiens; details: Homo sapiens, IST-SL1;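 note: growth inhibition of human IST-SL1 cells, read out with a cell viability assay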
Description: SANGER: Inhibition of human IST-SL1 cell growth in a cell viability assay.

[24] = system: SBC-1; assay type: functional, cell-based, Homo sapiens; details: Homo sapiens, SBC-1;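 note: cell viability assay measuring growth inhibition of the SBC-1 cell line, IC50 being the concentration that halves growth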
Description: SANGER: Inhibition of human SBC-1 cell growth in a cell viability assay.

[25] = system: NCI-H69; assay type: functional, cell-based, Homo sapiens; details: Homo sapiens, NCI-H69;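 note: growth inhibition of the cell line, read out with a cell viability assay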
Description: SANGER: Inhibition of human NCI-H69 cell growth in a cell viability assay.

[26] = system: NMC-G1; assay type: functional, cell-based, Homo sapiens; details: Homo sapiens, NMC-G1;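 note: growth inhibition of the NMC-G1 cell line, measured with a cell viability read-out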
Description: SANGER: Inhibition of human NMC-G1 cell growth in a cell viability assay.

[27] = system: LNCaP-Clone-FGC; assay type: functional, cell-based, Homo sapiens; details: Homo sapiens, LNCaP-Clone-FGC
Description: SANGER: Inhibition of human LNCaP-Clone-FGC cell growth in a cell viability assay.

[28] = system: LC-2-ad; assay type: functional, cell-based, Homo sapiens; details: Homo sapiens, LC-2-ad;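 note: growth inhibition of human LC-2-ad cells, read out with a cell viability assay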
Description: SANGER: Inhibition of human LC-2-ad cell growth in a cell viability assay.

[29] = system: RS4-11; assay type: functional, cell-based, Homo sapiens; details: Homo sapiens, RS4-11;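 note: growth inhibition of RS4-11 cells, read out by a cell viability assay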
Description: SANGER: Inhibition of human RS4-11 cell growth in a cell viability assay.

[30] = system: RCC10RGB; assay type: functional, cell-based, Homo sapiens; details: Homo sapiens, RCC10RGB;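 note: growth inhibition of human RCC10RGB cells, read out by a cell viability assay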
Description: SANGER: Inhibition of human RCC10RGB cell growth in a cell viability assay.

[31] = system: NCI-H1395; assay type: functional, cell-based, Homo sapiens; details: Homo sapiens, NCI-H1395;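 note: cell viability assay read-out quantifying reduced proliferation of human NCI-H1395 cells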
Description: SANGER: Inhibition of human NCI-H1395 cell growth in a cell viability assay.

[32] = system: LAN-6; assay type: functional, cell-based, Homo sapiens; details: Homo sapiens, LAN-6;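 note: growth inhibition of LAN-6 cells, determined with a cell viability assay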
Description: SANGER: Inhibition of human LAN-6 cell growth in a cell viability assay.

[33] = system: MN-60; assay type: functional, cell-based, Homo sapiens; details: Homo sapiens, MN-60;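 note: growth inhibition of the MN-60 cell line, determined with a cell viability assay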
Description: SANGER: Inhibition of human MN-60 cell growth in a cell viability assay.

[34] = system: DB; assay type: functional, cell-based, Homo sapiens; details: Homo sapiens, DB
Description: SANGER: Inhibition of human DB cell growth in a cell viability assay.

[35] = system: ALL-PO; assay type: functional, cell-based, Homo sapiens; details: Homo sapiens, ALL-PO;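 note: growth inhibition of ALL-PO cells, read out by a cell viability assay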
Description: SANGER: Inhibition of human ALL-PO cell growth in a cell viability assay.

[36] = system: NCI-H1648; assay type: functional, cell-based, Homo sapiens; details: Homo sapiens, NCI-H1648;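 note: cell viability assay measuring inhibition of NCI-H1648 cell growth, from the Sanger screening data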
Description: SANGER: Inhibition of human NCI-H1648 cell growth in a cell viability assay.

[37] = system: COLO-829; assay type: functional, cell-based, Homo sapiens; details: Homo sapiens, COLO-829
Description: SANGER: Inhibition of human COLO-829 cell growth in a cell viability assay.

[38] = system: NCI-H23; assay type: functional, cell-based, Homo sapiens; details: Homo sapiens, NCI-H23;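 note: cell viability assay measuring growth inhibition of NCI-H23 cells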
Description: SANGER: Inhibition of human NCI-H23 cell growth in a cell viability assay.

[39] = system: HAL-01; assay type: functional, cell-based, Homo sapiens; details: Homo sapiens, HAL-01;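 note: growth inhibition of human HAL-01 cells, read out with a cell viability assay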
Description: SANGER: Inhibition of human HAL-01 cell growth in a cell viability assay.

[40] = system: NCI-H1581; assay type: functional, cell-based, Homo sapiens; details: Homo sapiens, NCI-H1581;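 note: cell growth inhibition read out by a viability assay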
Description: SANGER: Inhibition of human NCI-H1581 cell growth in a cell viability assay.

[41] = system: SK-MEL-1; assay type: functional, cell-based, Homo sapiens; details: Homo sapiens, SK-MEL-1;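 note: growth inhibition of human SK-MEL-1 cells, read out by a cell viability assay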
Description: SANGER: Inhibition of human SK-MEL-1 cell growth in a cell viability assay.

[42] = system: NKM-1; assay type: functional, cell-based, Homo sapiens; details: Homo sapiens, NKM-1;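 note: growth inhibition of NKM-1 cells, read out with a cell viability assay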
Description: SANGER: Inhibition of human NKM-1 cell growth in a cell viability assay.

[43] = system: KURAMOCHI; assay type: functional, cell-based, Homo sapiens; details: Homo sapiens, KURAMOCHI;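 note: growth inhibition of KURAMOCHI cells, read out with a cell viability assay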
Description: SANGER: Inhibition of human KURAMOCHI cell growth in a cell viability assay.

[44] = system: NB5; assay type: functional, cell-based, Homo sapiens; details: Homo sapiens, NB5;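 note: growth inhibition of NB5 cells, read out as cell viability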
Description: SANGER: Inhibition of human NB5 cell growth in a cell viability assay.

[45] = system: C8166; assay type: functional, cell-based, Homo sapiens; details: Homo sapiens, C8166;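 note: growth inhibition of human C8166 cells measured by a cell viability assay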
Description: SANGER: Inhibition of human C8166 cell growth in a cell viability assay.

[46] = system: HEL; assay type: functional, cell-based, Homo sapiens; details: Homo sapiens, HEL;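 note: growth inhibition of HEL cells, read out with a cell viability assay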
Description: SANGER: Inhibition of human HEL cell growth in a cell viability assay.

[47] = system: HD-MY-Z; assay type: functional, cell-based, Homo sapiens; details: Homo sapiens, HD-MY-Z;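 note: growth inhibition of HD-MY-Z cells, read out with a cell viability assay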
Description: SANGER: Inhibition of human HD-MY-Z cell growth in a cell viability assay.

[48] = system: OVCAR-4; assay type: functional, cell-based, Homo sapiens; details: Homo sapiens, OVCAR-4;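 note: growth inhibition of human OVCAR-4 cells, measured with a cell viability assay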
Description: SANGER: Inhibition of human OVCAR-4 cell growth in a cell viability assay.

SMILES: CO[C@@H]1[C@H](N(C)C(=O)c2ccccc2)C[C@H]2O[C@]1(C)n1c3ccccc3c3c4c(c5c6ccccc6n2c5c31)C(=O)NC4 [MIDOSTAURIN]
- IC50 [1]: > 512 nM
- IC50 [2]: > 512 nM
- IC50 [3]: > 512 nM
- IC50 [4]: 330 nM
- IC50 [5]: 330 nM
- IC50 [6]: 380 nM

SMILES: O=C1NC(=O)c2c1c(-c1ccccc1Cl)cc1[nH]c3ccc(O)cc3c21
- IC50 [7]: > 2000 nM
- IC50 [8]: 316 nM
- IC50 [9]: > 2000 nM
- IC50 [10]: > 2000 nM
- IC50 [11]: > 2000 nM
- IC50 [12]: > 2000 nM
- IC50 [13]: > 2000 nM
- IC50 [14]: 242 nM
- IC50 [15]: > 2000 nM
- IC50 [16]: 1530 nM
- IC50 [17]: > 2000 nM
- IC50 [18]: > 2000 nM
- IC50 [19]: 1420 nM
- IC50 [20]: > 2000 nM
- IC50 [21]: 834 nM
- IC50 [22]: 666 nM
- IC50 [23]: 1460 nM
- IC50 [24]: > 2000 nM
- IC50 [25]: > 2000 nM
- IC50 [26]: > 2000 nM
- IC50 [27]: > 2000 nM
- IC50 [1]: > 2000 nM
- IC50 [28]: > 2000 nM
- IC50 [29]: 898 nM
- IC50 [30]: > 2000 nM
- IC50 [31]: > 2000 nM
- IC50 [32]: > 2000 nM
- IC50 [2]: > 2000 nM
- IC50 [33]: 1200 nM
- IC50 [34]: 1300 nM
- IC50 [35]: > 2000 nM
- IC50 [36]: > 2000 nM
- IC50 [37]: > 2000 nM
- IC50 [38]: > 2000 nM
- IC50 [39]: 1160 nM
- IC50 [40]: > 2000 nM
- IC50 [41]: > 2000 nM
- IC50 [3]: > 2000 nM
- IC50 [42]: > 2000 nM
- IC50 [43]: > 2000 nM
- IC50 [5]: > 2000 nM
- IC50 [44]: > 2000 nM
- IC50 [45]: > 2000 nM
- IC50 [46]: 1220 nM
- IC50 [6]: > 2000 nM

SMILES: CN(NC(=O)CC(=O)NN(C)C(=S)c1ccccc1)C(=S)c1ccccc1 [ELESCLOMOL]
- IC50 [7]: 15.2 nM
- IC50 [8]: > 200 nM
- IC50 [9]: 46 nM
- IC50 [10]: 10.3 nM
- IC50 [11]: > 200 nM
- IC50 [12]: 13.8 nM
- IC50 [13]: > 200 nM
- IC50 [14]: 8.64 nM
- IC50 [15]: 1.61 nM
- IC50 [16]: > 200 nM
- IC50 [17]: 184 nM
- IC50 [18]: 90.1 nM
- IC50 [19]: 4.53 nM
- IC50 [20]: 29.9 nM
- IC50 [21]: 96.3 nM
- IC50 [22]: 18.7 nM
- IC50 [23]: 52.3 nM
- IC50 [24]: 35.1 nM
- IC50 [25]: > 200 nM
- IC50 [26]: 20.4 nM
- IC50 [27]: 7.73 nM
- IC50 [1]: 5.41 nM
- IC50 [28]: 27.8 nM
- IC50 [29]: > 200 nM
- IC50 [30]: > 200 nM
- IC50 [31]: 13.6 nM
- IC50 [32]: 54.6 nM
- IC50 [2]: 23.3 nM
- IC50 [33]: 14.3 nM
- IC50 [34]: 141 nM
- IC50 [35]: > 200 nM
- IC50 [36]: > 200 nM
- IC50 [37]: 43.1 nM
- IC50 [47]: 5.91 nM
- IC50 [38]: 12.2 nM
- IC50 [39]: 128 nM
- IC50 [40]: 24.6 nM
- IC50 [41]: > 200 nM
- IC50 [3]: > 200 nM
- IC50 [4]: 14 nM
- IC50 [42]: > 200 nM
- IC50 [43]: > 200 nM
- IC50 [5]: 14.1 nM
- IC50 [44]: 30.7 nM
- IC50 [45]: > 200 nM
- IC50 [46]: 7.08 nM
- IC50 [48]: 5.87 nM
- IC50 [6]: 16 nM
